# Laboratory results taken from patent US20210236442A1, “METHODS FOR DELAYING OCCURRENCE OF NEW-ONSET TYPE 2 DIABETES AND FOR SLOWING PROGRESSION OF AND TREATING TYPE 2 DIABETES” (Dalcor Pharma UK Ltd., Leatherhead, Zug Branch, priority 2018, published 2021).
# Columns and labels:
# Type in all cases: in vivo, human
# [1] = system: patients of the dal-OUTCOMES trial; test: GLM of dalcetrapib treatment arm for whole-blood HbA1c at 6, 12 and 24 months
# Description: The effect of dalcetrapib on whole-blood HbA1c levels irrespective of genotype and the impact of dalcetrapib on risk of new onset diabetes were retrospectively assessed in patients of the dal-OUTCOMES trial. The descriptive statistics and analyses were performed using SAS 9.4 software. Diabetes at baseline was defined based on at least one of the following patient criteria: (1) diagnosis of diabetics at baseline in the dal-OUTCOMES trial; (2) whole-blood HbA1c level>=6.5% at baseline; (3) fasting glucose level>=7.0 mmol/L at baseline; and (4) use of diabetes medication at or before baseline. GLM results of the dalcetrapib treatment arm for whole-blood HbA1c at 6,12, and 24 months (“M06”, “M12” and “M24”, respectively) were obtained.
# [2] = system: patients of the dal-OUTCOMES trial; test: Repeated measures mixed regression of treatment arm for HbA1c, all patients and per genotype (Example 2); settings: all patients combined and each rs1967309 genotype; with and without covariates
# Description: The effect of dalcetrapib on whole-blood HbA1c levels irrespective of genotype and the impact of dalcetrapib on risk of new onset diabetes were retrospectively assessed in patients of the dal-OUTCOMES trial. The descriptive statistics and analyses were performed using SAS 9.4 software.
# [3] = system: patients enrolled in the dal-OUTCOMES trial; test: Descriptive statistics of glucose and HbA1c, reported and change from baseline, by genotype and treatment arm; settings: non-diabetic patients irrespective of rs1967309 genotype
# Excerpt: The effect of ADCY9 rs1967309 genotypes on patient HbA1C and glucose levels was retrospectively assessed in patients enrolled in the dal-OUTCOMES trial.
# Inclusion Criteria: Patients 45 years of age or older who provided written informed consent were eligible to participate if they had been hospitalized for an acute coronary syndrome characterized by elevated cardiac biomarkers, with symptoms of acute myocardial ischemia, ischemic electrocardiographic abnormalities that were new or presumed to be new, or loss of viable myocardium on imaging. Patients without elevated cardiac biomarkers were eligible to participate if symptoms of acute myocardial ischemia were accompanied by electrocardiographic changes that were new or presumed to be new and by additional evidence of obstructive coronary disease. […] However, no specific statin agent or dose was specified, and patients were not excluded if their LDL cholesterol level remained above 100 mg per deciliter. There were no exclusions on the basis of patients' HDL cholesterol level. […]
# Descriptive statistics of reported and change from baseline of glucose and HbA1C according to the genotype of the SNP rs1967309 were analyzed for each treatment arm and for diabetic and non-diabetic patients separately with non-parametric statistics.
compound,measurement,setting,value
CCC(CC)CC1(C(=O)Nc2ccccc2SC(=O)C(C)C)CCCCC1 [dalcetrapib],"β dalcetrapib, Ln(HbA1c)","[1]; All, HBA1C_M06, Table 12, adjustment not stated",−0.0137
same,"β dalcetrapib, Ln(HbA1c)","[1]; All, HBA1C_M06, first block, adjusted for baseline HbA1c",−0.0143
same,"β dalcetrapib, Ln(HbA1c)","[1]; All, HBA1C_M12, Table 12, adjustment not stated",−0.0152
same,"β dalcetrapib, Ln(HbA1c)","[1]; All, HBA1C_M12, first block, adjusted for baseline HbA1c",−0.0160
same,"β dalcetrapib, Ln(HbA1c)","[1]; All, HBA1C_M24, Table 12, adjustment not stated",−0.0170
same,"β dalcetrapib, Ln(HbA1c)","[1]; All, HBA1C_M24, first block, adjusted for baseline HbA1c",−0.0176
same,association of dalcetrapib treatment arm with whole-blood HbA1c levels,"[1]; M06, M12, M24, all patients combined and each rs1967309 genotype, with and without age and sex",associated with decrease in whole-blood HbA1c levels
same,"β dalcetrapib, Ln(HbA1c)","[1]; genotype = AA, HBA1C_M06, Table 12, adjustment not stated",−0.0192
same,"β dalcetrapib, Ln(HbA1c)","[1]; genotype = AA, HBA1C_M06, first block, adjusted for baseline HbA1c",−0.0196
same,"β dalcetrapib, Ln(HbA1c)","[1]; genotype = AA, HBA1C_M12, Table 12, adjustment not stated",−0.0112
same,"β dalcetrapib, Ln(HbA1c)","[1]; genotype = AA, HBA1C_M12, first block, adjusted for baseline HbA1c",−0.0116
same,"β dalcetrapib, Ln(HbA1c)","[1]; genotype = AA, HBA1C_M24, Table 12, adjustment not stated",−0.0172
same,"β dalcetrapib, Ln(HbA1c)","[1]; genotype = AA, HBA1C_M24, first block, adjusted for baseline HbA1c",−0.0171
same,"β dalcetrapib, Ln(HbA1c)","[1]; genotype = AG, HBA1C_M06, Table 12, adjustment not stated",−0.0113
same,"β dalcetrapib, Ln(HbA1c)","[1]; genotype = AG, HBA1C_M06, first block, adjusted for baseline HbA1c",−0.0123
same,"β dalcetrapib, Ln(HbA1c)","[1]; genotype = AG, HBA1C_M12, Table 12, adjustment not stated",−0.0143
same,"β dalcetrapib, Ln(HbA1c)","[1]; genotype = AG, HBA1C_M12, first block, adjusted for baseline HbA1c",−0.0156
same,"β dalcetrapib, Ln(HbA1c)","[1]; genotype = AG, HBA1C_M24, Table 12, adjustment not stated",−0.0139
same,"β dalcetrapib, Ln(HbA1c)","[1]; genotype = AG, HBA1C_M24, first block, adjusted for baseline HbA1c",−0.0153
same,"β dalcetrapib, Ln(HbA1c)","[1]; genotype = GG, HBA1C_M06, Table 12, adjustment not stated",−0.0145
same,"β dalcetrapib, Ln(HbA1c)","[1]; genotype = GG, HBA1C_M06, first block, adjusted for baseline HbA1c",−0.0145
same,"β dalcetrapib, Ln(HbA1c)","[1]; genotype = GG, HBA1C_M12, Table 12, adjustment not stated",−0.0185
same,"β dalcetrapib, Ln(HbA1c)","[1]; genotype = GG, HBA1C_M12, first block, adjusted for baseline HbA1c",−0.0186
same,"β dalcetrapib, Ln(HbA1c)","[1]; genotype = GG, HBA1C_M24, Table 12, adjustment not stated",−0.0214
same,"β dalcetrapib, Ln(HbA1c)","[1]; genotype = GG, HBA1C_M24, first block, adjusted for baseline HbA1c",−0.0210
same,"β dalcetrapib, Ln(HbA1c)","[1]; genotype_group = AA + AG, HBA1C_M06, Table 12, adjustment not stated",−0.0133
same,"β dalcetrapib, Ln(HbA1c)","[1]; genotype_group = AA + AG, HBA1C_M06, first block, adjusted for baseline HbA1c",−0.0141
same,"β dalcetrapib, Ln(HbA1c)","[1]; genotype_group = AA + AG, HBA1C_M12, Table 12, adjustment not stated",−0.0135
same,"β dalcetrapib, Ln(HbA1c)","[1]; genotype_group = AA + AG, HBA1C_M12, first block, adjusted for baseline HbA1c",−0.0146
same,"β dalcetrapib, Ln(HbA1c)","[1]; genotype_group = AA + AG, HBA1C_M24, Table 12, adjustment not stated",−0.0147
same,"β dalcetrapib, Ln(HbA1c)","[1]; genotype_group = AA + AG, HBA1C_M24, first block, adjusted for baseline HbA1c",−0.0157
same,"β dalcetrapib, Ln(HbA1c)","[1]; genotype_group = GG, HBA1C_M06, Table 12, adjustment not stated",−0.0145
same,"β dalcetrapib, Ln(HbA1c)","[1]; genotype_group = GG, HBA1C_M06, first block, adjusted for baseline HbA1c",−0.0145
same,"β dalcetrapib, Ln(HbA1c)","[1]; genotype_group = GG, HBA1C_M12, Table 12, adjustment not stated",−0.0185
same,"β dalcetrapib, Ln(HbA1c)","[1]; genotype_group = GG, HBA1C_M12, first block, adjusted for baseline HbA1c",−0.0186
same,"β dalcetrapib, Ln(HbA1c)","[1]; genotype_group = GG, HBA1C_M24, Table 12, adjustment not stated",−0.0214
same,"β dalcetrapib, Ln(HbA1c)","[1]; genotype_group = GG, HBA1C_M24, first block, adjusted for baseline HbA1c",−0.0210
same,mean ln(HbA1c) in the dalcetrapib treatment arm,"[1]; versus placebo arm, adjusting for baseline HbA1c",lower than in the placebo arm
same,dalcetrapib treatment arm as predictor of HbA1c,[2],significant predictor of reduced HbA1c
same,HbA1c change from baseline compared to placebo,[3],greater reductions in HbA1c
same,whole-blood level of HbA1c with dalcetrapib treatment compared to placebo,[3],systematically lower
